Patent US20170249408A1, “Antiperspirant and Deodorant Compositions Comprising Malodor Reduction Compositions” (The Procter & Gamble Company, priority 2015, published 2017)

Assay: Blocker Index (BI), expert graders, isovaleric acid malodorous swatch
Parameters: key: Blocker Index, expert-graded scale 0 to 3 (0 = clean swatch anchor)
Text: Blocker materials suitable for use in consumer products of the present invention are chosen for their ability to decrease malodor, while not interfering with perception of a fragrance. Material selection is done by assigning two indices to a test sample material from two reference scales in order to rank odor strengths. The two reference scales are the Fragrance Fidelity Index (FFI) scale and the Blocker Index (BI) scale. The FFI ranks the ability of the test sample material to impart a perceivable odor which could cause interference when combined with another fragrance and the BI ranks the ability of the test sample material to reduce malodor perception. The two methods for assigning the indices to a test sample on the FFI and the BI reference scales are given below.
The first step in the method for assigning a BI to a test sample material on the BI reference scale is to create the BI reference swatches. […] Fabric swatches for this test are white knit polycotton (4 inch×4 inch) swatches from EMC ordered as PC 50/50. The supplier is instructed to strip the swatches first, stripping involves washing twice with a fragrance-free detergent and rinsing three times.
The BI scale contains one clean swatch with no malodor applied. […] These solutions are pipetted to the middle of the swatches. […] After drying for 30 minutes in a vented hood, the swatches are wrapped in aluminum foil to prevent odor contamination to the treated swatch. A clean untreated swatch is also included as the lowest anchor point of reference for malodor strength on the BI scale. The BI reference scale swatches should be used within 0.5 to 12 hours and discarded after 12 hours. The swatches are used as scale anchor points when graders evaluate a test sample(s) and are assigned a Blocker Index (BI) as show in Table 12.
The perfumer/expert grader is asked to rank order swatches according to a scale between 0 and 3.
To evaluate the BI, the test material is applied to a malodorous swatch to determine how well the test material blocks the malodor. […] After drying the malodorous swatch a known concentration of test material solution, between 1 ppm and 100 ppm is pipetted onto the malodorous swatch. […] It is sometimes necessary to evaluate several levels of the test material between about 1 and about 100 ppm to determine the BI.
At least two perfumers/expert graders are used to assign the BI to the test sample. […] The test sample swatch is assigned a BI at or between numbers on the BI in table.

[1] = Conc 10 ppm of test material on isovaleric acid malodorous swatch
[2] = Conc 50 ppm of test material on isovaleric acid malodorous swatch
[3] = test material Conc 10 ppm on isovaleric acid swatch
[4] = test material Conc 50 ppm on isovaleric acid swatch

Compound `O=C1CCC2CCCCC2O1` (stereo not shown) [3,4,4a,5,6,7,8,8a-octahydrochromen-2-one] has a BI [1] of 2.0 and a BI [2] of 2.0.
`CCOC(=O)OC1C(C)CCC(C)C1C` (stereo not shown) [Material 1005] showed a BI [2] of 2.6.
`CCCCCCCCCCCCCCCC(=O)OC` [Material 109] showed a BI [1] of 2.0.
With `C=CC(C)=CCC=C(C)C` [Material 524] the BI [2] was 2.8.
`CC1(C)C2CCC3(C2)C1C(=O)CCC3(C)C` (stereo not shown) [Material 1149] gave a BI [1] of 1.5 and a BI [2] of 2.3.
Compound `CCC(=O)OC1CC2C3C=CCC3C1C2(C)C` (stereo not shown) [8,8-dimethyl-3a,4,5,6,7,7a-hexahydro-1H-4,7-methanoinden-6-yl propionate] has a BI [3] of 1.5 and a BI [4] of 2.2.
`CCC(O)COC1CCCCC1C(C)(C)C` (stereo not shown) [Material 677] gave a BI [1] of 2.3 and a BI [2] of 2.0.
`CCCCCCCCCCCO` [Undecanol] gave a BI [2] of 2.3.
Work on `CC(CCO)CCc1ccccc1` (stereo not shown) [Material 962] yielded a BI [1] of 2.3 and a BI [2] of 1.7.
Work on `CC1(C)CCc2ccc(CCC=O)cc21` [Material 261, 3-(3,3-dimethyl-2,3-dihydro-1H-inden-5-yl)propanal] yielded a BI [3] of 1.5 and a BI [4] of 2.7.
In the case of `CCCCCCCCCCCC(=O)OCC` [Material 391], the BI [2] is reported as 2.2.
Work on `COC(=O)OC1CC/C=C\CCC1` (stereo not shown) [Material 1139] yielded a BI [1] of 2.0 and a BI [2] of 2.7.
With `CC(=O)OC1CC2CC1C1CC=CC21` (stereo not shown) [Material 281] the BI [1] was 2.0 and the BI [2] was 2.0.
In the case of `CC1(C)CCc2ccc(CCC=O)cc21` [Material 261], the BI [1] is reported as 1.8 and the BI [2] is reported as 1.3.
`CC(C)(C)C1CCCCC1` [4-tert-butyl cyclohexane] gave a BI [1] of 2.0 and a BI [2] of 2.0.
For `C=C1CCC2OC2(C)CCC2C1CC2(C)C` (stereo not shown) [Material 1148], the BI [2] was 2.3.
With `CC1CCC2(C(C)C)CC(C)OC2C1` (stereo not shown) [4,8-dimethyl-1-(methylethyl)-7-oxybiciclo[4.3.0]nonane] the BI [3] was 2.0 and the BI [4] was 2.2.
Compound `CC(=O)OCCCCCCC(C)C` [Material 204] has a BI [1] of 2.0 and a BI [2] of 2.7.
For `CCCCCCCCCCCCO` [Material 174], the BI [2] was 2.3.
